# Laboratory results reported in ChEMBL document CHEMBL1201862, “PubChem BioAssay data set” (2004).
#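 Values below derive from 48-hour exposures of cells grown in 96-well plates, with endpoints linearly interpolated between the two concentrations bracketing the appropriate inhibition level. GI50 is the concentration that inhibits growth by half.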 The source made the active and inactive calls. Cut-off read from the data, not from the text of the source: active = GI50 up to about 1.1 µM and inactive = higher.
# Tests used:
# Assay in all cases: NCI-60 cell line screen, 48 h
# [1] = system: 786-0
# [2] = system: A498
# [3] = system: A549
# [4] = system: ACHN
# [5] = system: BT-549
# [6] = system: CAKI-1
# [7] = system: CCRF-CEM
# [8] = system: COLO 205
# [9] = system: DU-145
# [10] = system: EKVX
# [11] = system: HCC 2998
# [12] = system: HCT-116
# [13] = system: HCT-15
# [14] = system: HL-60
# [15] = system: HOP-62
# [16] = system: HOP-92
# [17] = system: HT-29
# [18] = system: Hs-578T
# [19] = system: IGROV-1
# [20] = system: K562
# [21] = system: KM12
# [22] = system: LOX IMVI
# [23] = system: MCF7
# [24] = system: MDA-MB-231
# [25] = system: MDA-MB-435
# [26] = system: MDA-N
# [27] = system: MOLT-4
# [28] = system: Malme-3M
# [29] = system: NCI-H226
# [30] = system: NCI-H23
# [31] = system: NCI-H460
# [32] = system: NCI-H522
# [33] = system: NCI/ADR-RES
# [34] = system: OVCAR-3
# [35] = system: OVCAR-4
# [36] = system: OVCAR-5
# [37] = system: OVCAR-8
# [38] = system: PC-3
# [39] = system: RPMI-8226
# [40] = system: RXF 393
# [41] = system: SF-268
# [42] = system: SF-295
# [43] = system: SF-539
# [44] = system: SK-MEL-28
# [45] = system: SK-MEL-2
# [46] = system: SK-MEL-5
# [47] = system: SN12C
# [48] = system: SNB-75
# [49] = system: SW-620
# [50] = system: T47D
# [51] = system: TK-10
# [52] = system: U-251
# [53] = system: UACC-257
# [54] = system: UACC-62
# [55] = system: UO-31
structure (smiles),measurement,setting,value
O=c1[nH]nc(Cc2ccccc2)n1/N=C/c1ccc([N+](=O)[O-])cc1,GI50,[1],> 100 µM (inactive)
same,GI50,[2],> 100 µM (inactive)
same,GI50,[3],> 100 µM (inactive)
same,GI50,[4],> 100 µM (inactive)
same,GI50,[5],> 100 µM (inactive)
same,GI50,[6],> 100 µM (inactive)
same,GI50,[7],> 100 µM (inactive)
same,GI50,[8],> 100 µM (inactive)
same,GI50,[9],> 100 µM (inactive)
same,GI50,[10],> 100 µM (inactive)
same,GI50,[11],> 100 µM (inactive)
same,GI50,[12],> 100 µM (inactive)
same,GI50,[13],> 100 µM
same,GI50,[14],> 100 µM (inactive)
same,GI50,[15],> 100 µM (inactive)
same,GI50,[16],> 100 µM (inactive)
same,GI50,[17],> 100 µM (inactive)
same,GI50,[18],> 100 µM (inactive)
same,GI50,[19],> 100 µM (inactive)
same,GI50,[20],> 100 µM (inactive)
same,GI50,[21],> 100 µM (inactive)
same,GI50,[22],> 100 µM (inactive)
same,GI50,[23],> 100 µM (inactive)
same,GI50,[24],> 100 µM (inactive)
same,GI50,[25],> 100 µM (inactive)
same,GI50,[26],> 100 µM (inactive)
same,GI50,[27],> 100 µM (inactive)
same,GI50,[28],> 100 µM (inactive)
same,GI50,[29],> 100 µM (inactive)
same,GI50,[30],> 100 µM (inactive)
same,GI50,[31],> 100 µM (inactive)
same,GI50,[32],> 100 µM (inactive)
same,GI50,[33],> 100 µM (inactive)
same,GI50,[34],> 100 µM (inactive)
same,GI50,[35],> 100 µM (inactive)
same,GI50,[36],> 100 µM (inactive)
same,GI50,[37],> 100 µM (inactive)
same,GI50,[38],> 100 µM (inactive)
same,GI50,[39],> 10 µM (inactive)
same,GI50,[40],> 100 µM (inactive)
same,GI50,[41],> 100 µM (inactive)
same,GI50,[42],> 100 µM (inactive)
same,GI50,[43],> 100 µM (inactive)
same,GI50,[44],> 100 µM (inactive)
same,GI50,[45],49 µM (inactive)
same,GI50,[46],> 100 µM (inactive)
same,GI50,[47],> 100 µM (inactive)
same,GI50,[48],42 µM (inactive)
same,GI50,[49],> 100 µM (inactive)
same,GI50,[50],> 100 µM (inactive)
same,GI50,[51],> 100 µM (inactive)
same,GI50,[52],> 100 µM (inactive)
same,GI50,[53],> 100 µM (inactive)
same,GI50,[54],> 100 µM (inactive)
same,GI50,[55],> 100 µM (inactive)
